Source: publication PMC10794144, “A novel antibiotic class targeting the lipopolysaccharide transporter” (Nature, 2024)
In brackets after ≈: the same amount, converted by molar mass.

Assays:
A. baumannii [1] = test: Neutropaenic mouse thigh infection model; format: in vivo; details: 24 h
Description: An intramuscular inoculation of a bacterial suspension of approximately 10^6 CFU per thigh was used to induce the infection. Treatment started 2 h after infection. […] In the pneumonia model, an intratracheal inoculation of approximately 10^7 CFU per lung was used to induce the infection. Treatment started 2 h after infection. […] Standard of care antibiotic was tested at a single dose in both infection models. GraphPad Prism 8 was used for graphical presentation and to analyse data.

A. baumannii ACC01073 = test: Neutropaenic mouse lung infection (pneumonia) model; format: in vivo; details: 120 mg/kg/day q12h
Description: An intramuscular inoculation of a bacterial suspension of approximately 10^6 CFU per thigh was used to induce the infection. Treatment started 2 h after infection. […] Thigh bacterial burden was determined after 24 h of treatment. In the pneumonia model, an intratracheal inoculation of approximately 10^7 CFU per lung was used to induce the infection. Treatment started 2 h after infection. […] Lung bacterial burden was determined after 24 h treatment. Standard of care antibiotic was tested at a single dose in both infection models. GraphPad Prism 8 was used for graphical presentation and to analyse data.

A. baumannii [2] = test: microbe, parasite or virus in culture; details: CAMHB; for MIC: MCPs read at 80% inhibition
Description: MIC determinations were performed using the broth microdilution method and in line with CLSI guidelines M07 and M100 (refs. [37],[38]). Bacterial inocula were prepared by diluting a 0.5 McFarland suspension in CAMHB or lysogeny broth (LB) specifically for A. baylyi isolates. […] MIC values of all of the tested antibiotics were read as the lowest compound concentration inhibiting bacterial growth by naked eye or beyond which the OD600 ceased to decrease.

C[C@@H](O)[C@H]1C(=O)N2C(C(=O)O)=C(S[C@@H]3CN[C@H](C(=O)N(C)C)C3)[C@H](C)[C@H]12 [MRP]
log CFU/thigh, average (A. baumannii [1]; A. baumannii ACC00535 (APV00535), neutropenic mice, MERO 100 mg/kg, average of 8 samples): 8.52 log CFU/thigh
delta 2 hr; Δ log (vs. veh 2hrs) (A. baumannii [1]; A. baumannii ACC00535 (APV00535), neutropenic mice, MERO 100 mg/kg, change of average log CFU/thigh vs start of therapy (2 h)): 2.37

CN(C)c1cc(NC(=O)CNC(C)(C)C)c(O)c2c1C[C@H]1C[C@H]3[C@H](N(C)C)C(O)=C(C(N)=O)C(=O)[C@@]3(O)C(O)=C1C2=O [tigecycline, reference compound]
ΔLog CFU/lungs vs A/0h (A. baumannii ACC01073): 0.70
CFU/lungs, average (A. baumannii ACC01073; n = 6): 4.23E+08
Log CFU/lungs, average (bacterial load) (A. baumannii ACC01073; n = 6): 8.39
MIC90 (A. baumannii [2]; Acinetobacter baumannii, 129 clinical isolates): 8 µg/mL (≈ 13.7 µM)
MIC (A. baumannii [2]; Acinetobacter baumannii, ACC00445): 2 µg/mL (≈ 3.41 µM)
MIC (A. baumannii [2]; Acinetobacter baumannii, ACC00535): 0.5 µg/mL (≈ 0.854 µM)
MIC (A. baumannii [2]; Acinetobacter baumannii, ACC01073): 4 µg/mL (≈ 6.83 µM)
MIC (A. baumannii [2]; Acinetobacter baumannii, ACC01077): 2 µg/mL (≈ 3.41 µM)
MIC (A. baumannii [2]; Acinetobacter baumannii, ACC01085 / AR0307): 4 µg/mL (≈ 6.83 µM)
MIC (A. baumannii [2]; Acinetobacter baumannii, ATCC17978, ATCC 17978): 0.5 µg/mL (≈ 0.854 µM)
MIC (A. baumannii [2]; Acinetobacter baumannii, ATCC19606, ATCC 19606): 1 µg/mL (≈ 1.71 µM)
MIC (A. baumannii [2]; Acinetobacter baumannii, ATCCBAA747, ATCC BAA-747): 0.25 µg/mL (≈ 0.427 µM)
MIC (A. baumannii [2]; Acinetobacter baumannii, ROB08701): 1 µg/mL (≈ 1.71 µM)
MIC (A. baumannii [2]; Acinetobacter baumannii, ROB08702): 4 µg/mL (≈ 6.83 µM)
MIC (A. baumannii [2]; Acinetobacter baumannii, ROB08703): 16 µg/mL (≈ 27.3 µM)
MIC (A. baumannii [2]; Acinetobacter baumannii, ROB08704): 0.5 µg/mL (≈ 0.854 µM)
MIC (A. baumannii [2]; Acinetobacter baumannii, ROB08705): 1 µg/mL (≈ 1.71 µM)
MIC (A. baumannii [2]; Acinetobacter baumannii, ROB08706): 8 µg/mL (≈ 13.7 µM)
MIC (A. baumannii [2]; Acinetobacter baumannii, ROB08707): 0.5 µg/mL (≈ 0.854 µM)
MIC (A. baumannii [2]; Acinetobacter baumannii, ROB08708): 1 µg/mL (≈ 1.71 µM)
MIC (A. baumannii [2]; Acinetobacter baumannii, ROB08709): 1 µg/mL (≈ 1.71 µM)
MIC (A. baumannii [2]; Acinetobacter baumannii, ROB08710): 1 µg/mL (≈ 1.71 µM)

colistin [reference compound]
Bacterial Load (average) (A. baumannii [1]; A. baumannii ACC01085, neutropenic mice, 60 mg/kg/day q8h, summary table, same as average Log CFU/Thigh): 3.39
MIC (A. baumannii [2]; ACC00445): 0.25 µg/mL
MIC (A. baumannii [2]; ACC00535): 0.5 µg/mL
MIC (A. baumannii [2]; ACC01073): >16 µg/mL
MIC (A. baumannii [2]; ACC01077): 16 µg/mL
MIC (A. baumannii [2]; ACC01085 / AR0307): 4 µg/mL
MIC (A. baumannii [2]; ATCC 17978): 0.25 µg/mL
MIC (A. baumannii [2]; ATCC 19606): 0.5 µg/mL
MIC (A. baumannii [2]; ATCC BAA-747): 0.5 µg/mL
MIC (A. baumannii [2]; ROB08701): 1 µg/mL
MIC (A. baumannii [2]; ROB08702): 2 µg/mL
MIC (A. baumannii [2]; ROB08703): 0.5 µg/mL
MIC (A. baumannii [2]; ROB08704): 2 µg/mL
MIC (A. baumannii [2]; ROB08705): 0.5 µg/mL
MIC (A. baumannii [2]; ROB08706): 0.25 µg/mL
MIC (A. baumannii [2]; ROB08707): 2 µg/mL
MIC (A. baumannii [2]; ROB08708): 0.25 µg/mL
MIC (A. baumannii [2]; ROB08709): 1 µg/mL
MIC (A. baumannii [2]; ROB08710): 2 µg/mL
